Tests used:
[1] = Intraocular pharmacokinetic tests by fluorophotometry in rabbits after injection into the vitreous body; type: in vivo, white rabbits; conditions: rabbit, intravitreous injection
Protocol: Intraocular pharmacokinetic tests by fluorophotometry in rabbits It is difficult in terms of measurement techniques to actually trace transfer of slight amounts of tissues using the drug-PEG conjugate prepared above. Accordingly, fluorescein, which has fluorescence and can be measured with high sensitivity, was used as a model drug, a fluorescein-PEG conjugate (hereinafter referred to as “FL-PEG”) was synthesized, and intraocular pharmacokinetics tests were performed. Fluorescein sodium (hereinafter referred to as “FL”) was used as a comparative substance.
A 2.6% sterilized glycerin solution (10 ml) was added to FL-PEG (18 mg), and this liquid was stirred to dissolve FL-PEG to prepare an injection. A 10 μg/ml injection containing FL was prepared in the similar manner.
1) A mixed solution containing an aqueous ketamine hydrochloride solution (50 mg/ml) and an aqueous xylazine hydrochloride (50 mg/ml) in a ratio of 7:3 was administered intramuscularly to white rabbits to anesthetize.
2) A tropicamide (0.5%)/phenylephrine hydrochloride (0.5%) ophthalmic solution was instilled into eyes to cause mydriasis in the eyes.
3) The eyes were anesthetized with an oxybuprocaine hydrochloride (0.5%) ophthalmic solution.
4) The above-mentioned FL-PEG or FL liquid preparation was injected into the center of a vitreous body of one eye from an ocular pars plana in an amount of […] respectively with a syringe equipped with a 30 G needle.
5) Intraocular fluorescence intensity was measured with a fluorophotometry apparatus with the laps of time immediately after the administration to the vitreous body and at 1, 2, 4, 7, 15, 18, 23, 28, 35, 42, 49 and 56 days. A calibration curves were prepared, changes in concentration in the vitreous body and a retina were determined. Next, respective half-lives were calculated from the changes in concentration by a moment method. The above-mentioned operation 2) was carried out before the intraocular fluorescence intensity was measured.
The numerical values in the table are the average of three samples respectively. The half-life of FL-PEG in the vitreous body was calculated using measured values on forth to 28th day. […] The half-life of FL in the vitreous body was calculated using measured values immediately after the administration and on first day after the administration.

[2] = tested on: krypton laser-induced choroidal neovascularization; assay: Effects of subconjunctivally administered betamethasone-PEG conjugate on krypton laser-induced choroidal neovascularization in rats; type: in vivo; conditions: single subconjunctival injection 50 μl (BM-PEG 40 mg/ml, BP 2.8 mg/ml), 14th day after photocoagulation, vehicle 71.9%
Protocol: 1) A one ml/kg mixed solution containing an aqueous ketamine hydrochloride solution (50 mg/ml) and an aqueous xylazine hydrochloride solution (50 mg/ml) in a ratio of 7:1 was administered intramuscularly to rats to anesthetize them systemically.
2) A 0.5% tropicamide-0.5% phenylephrine hydrochloride solution was instilled into the eyes to cause mydriasis, and then photocoagulation was performed with a krypton laser photocoagulation apparatus (red) under coagulation conditions of spot size of 100 μm, output of 100 mW and coagulation time of 0.1 sec.
3) Cover glass for observing tissues was used as a contact lens, the photocoagulation was carried out in a posterior pole portion of ocular fundus at eight spots per eye sparsely avoiding thick retinal vessels. The photocoagulation was carried out focusing on the retinal posterior portion in order to cut a Bruch's membrane. After the photocoagulation, the ocular fundus was photographed. […]
6) In the fluorescein fundus angiography, a photocoagulation site where fluorescence diapedesis was not observed was judged as negative, and a photocoagulation site where apparent fluorescence diapedesis was observed was judged as positive. When there are two photocoagulation sites where a little fluorescence diapedesis was observed, they were judged as positive. Each neovascularization exhibition rate was calculated according to the following equation. […]

| SMILES | Half-life in vitreous body ([1]; fluorophotometry, moment method, average of three samples) | Detection in the retina (changes in concentration, FIG. 2) ([1]; followed for 56 days) | Detection in the vitreous body (changes in concentration, FIG. 1) ([1]; followed for 56 days) | half-life ([1]; white, vitreous body, other: injection into the vitreous body (intravitreal), 1 µg/eye, fluorophotometry, moment method, average of three samples) [h] | Neovascularization exhibition rate (%) [2] [%] |
| --- | --- | --- | --- | --- | --- |
| O=C1OC2(c3ccc(O)cc3Oc3cc(O)ccc32)c2ccccc21 [FL, Fluorescein sodium] | less than four | detected only on first day after the administration | not detected on second day after the administration or later | < 4 | – |
| C[C@H]1C[C@H]2[C@@H]3CCC4=CC(=O)C=C[C@]4(C)[C@@]3(F)[C@@H](O)C[C@]2(C)[C@@]1(O)C(=O)COP(=O)(O)O [BP, Betamethasone phosphate] | – | – | – | – | 50.0 |

Source: patent US20040254197A1, “Injections for eye tissues containing drug bonded to polyethlene glycol” (SANTEN PHARMACEUTICAL CO., LTD., priority 2001, published 2004)
